# Assays:
# human PAI-1 = human PAI-1 (Homo sapiens, UniProt P05121); test: Assay for determining the IC50 of inhibition of PAI-1 (active PAI-1 bound to tPA-coated plate, 33B8 antibody detection); format: biochemical; settings: human PAI-1 50 ng/ml, pH 7.5
# Method: Assay for determining the IC50 of inhibition of PAI-1. This assay is based upon the non-SDS dissociable interaction between tPA and active PAI-1. Assay plates are initially coated with human tPA (10 μg/ml). Test compounds are dissolved in DMSO at 10 mM, then diluted with physiologic buffer (pH 7.5) to a final concentration of 1-50 μM. The test compounds are incubated with human PAI-1 (50 ng/ml) for 15 minutes at room temperature. The tPA-coated plate is washed with a solution of 0.05% Tween 20 and 0.1% BSA, then the plate is blocked with a solution of 3% BSA. An aliquot of the test compound/PAI-1 solution is then added to the tPA-coated plate, incubated at room temperature for 1 hour, and washed. Active PAI-1 bound to the plate is assessed by adding an aliquot of a 1:1000 dilution of the 33B8 monoclonal antibody against human PAI-1, and incubating the plate at room temperature for 1 hour (Molecular Innovations, Royal Oak, Mich.). The plate is again washed, and a solution of goat anti-mouse IgG-alkaline phosphatase conjugate is added at a 1:50,000 dilution in goat serum. The plate is incubated 30 minutes at room temperature, washed, and a solution of alkaline phosphatase substrate is added. The plate is incubated 45 minutes at room temperature, and color development is determined at OD405 nm. The quantitation of active PAI-1 bound to tPA at varying concentrations of the test compound is used to determine the IC50. Results are analyzed using a logarithmic best-fit equation. The assay sensitivity is 5 ng/ml of human PAI-1 as determined from a standard curve ranging from 0-100 ng/ml.
# human PAI-1, sequence (P05121 24-402): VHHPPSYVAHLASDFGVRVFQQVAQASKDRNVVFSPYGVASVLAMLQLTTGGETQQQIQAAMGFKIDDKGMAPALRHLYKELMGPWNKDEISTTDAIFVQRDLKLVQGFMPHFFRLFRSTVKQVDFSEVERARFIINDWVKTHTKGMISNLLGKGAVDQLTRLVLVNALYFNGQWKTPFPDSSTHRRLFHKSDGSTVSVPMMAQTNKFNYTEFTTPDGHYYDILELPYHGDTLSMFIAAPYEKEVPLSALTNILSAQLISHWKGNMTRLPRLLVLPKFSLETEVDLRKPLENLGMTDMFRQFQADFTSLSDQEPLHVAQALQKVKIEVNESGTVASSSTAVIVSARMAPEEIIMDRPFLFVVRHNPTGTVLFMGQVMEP
compound,measurement,setting,value
"O=C(Nc1cc(OCCCO/N=C/c2ccc(C(F)(F)F)cc2)ccc1C(=O)O)c1ccc(OC(F)(F)F)cc1 [Compound 30, 2-{[4-(Trifluoromethoxy)benzoyl]amino}-4-{3-[({(1E)-[4-(trifluoromethyl)phenyl]methylidene}amino)oxy]propoxy}benzoic Acid]",IC50,human PAI-1,15.9 µM
"CC(C)(C)c1ccc(C=NOCCCOc2ccc(CC(=O)O)cc2)cc1 [Compound 4, {4-[3-(4-tert-Butyl-benzylideneaminooxy)-propoxy]-phenyl}-acetic Acid]",melting point,,56.2 to 59.2 °C
same,IC50,human PAI-1,34.2 µM
"O=C(Nc1cc(OCCCO/N=C/c2ccc(-c3ccccc3)cc2)ccc1C(=O)O)c1cc(C(F)(F)F)cc(C(F)(F)F)c1 [Compound 31, 4-[3-({[(1E)-1,1′-Biphenyl-4-ylmethylidene]amino}oxy)propoxy]-2-{[3,5-bis(trifluoromethyl)benzoyl]amino}benzoic Acid]",melting point,,205 to 206 °C (dec.)
same,IC50,human PAI-1,19.6 µM
"CC(C)(C)c1ccc(/C=N/OCCOc2ccc(C(=O)O)c(OC(=O)c3ccc(C(C)(C)C)cc3)c2)cc1 [Compound 10, 2-{[4-(tert-Butyl)benzoyl]oxy}-4-{2-[({(E)-[4-(tert-butyl)phenyl]methylidene}amino)oxy]ethoxy}benzoic Acid]",melting point,,148.1 to 150.1 °C
same,IC50,human PAI-1,17.8 µM
"CC(C)(C)c1ccc(/C=N/OCCCOc2ccc(C(=O)O)c(NC(=O)c3ccccc3C(F)(F)F)c2)cc1 [Compound 24, 4-[3-({[(1E)-(4-tert-Butylphenyl)methylidene]amino}oxy)propoxy]-2-{[2-(trifluoromethyl)benzoyl]amino}benzoic acid]",melting point,,121.1 to 122 °C
same,IC50,human PAI-1,17.5 µM
"O=C(O)c1ccc(OCCCO/N=C/c2ccc(C(F)(F)F)cc2)cc1NC(=O)c1ccccc1C(F)(F)F [Compound 25, 2-{[2-(Trifluoromethyl)benzoyl]amino}-4-{3-[({(1E)-[4-(trifluoromethyl)phenyl]methylidene}amino)oxy]propoxy}benzoic acid]",melting point,,147.2 to 147.9 °C
same,IC50,human PAI-1,26.8 µM
"O=C(Nc1cc(OCCCO/N=C/c2ccc(C(F)(F)F)cc2)ccc1C(=O)O)c1ccc(C(F)(F)F)cc1 [Compound 22, 2-{[4-(Trifluoromethyl)benzoyl]amino}-4-{3-[({(1E)-[4-(trifluoromethyl)phenyl]methylidene}amino)oxy]propoxy}benzoic Acid]",melting point,,208.6 to 209.6 °C
same,IC50,human PAI-1,4.14 µM
"CC(C)(C)c1ccc(/C=N/OCc2ccc(C(=O)O)c(Br)c2)cc1 [Compound 33, 2-Bromo-4-[({[(1E)-(4-tert-butylphenyl)methylidene]amino}oxy)methyl]benzoic Acid]",melting point,,162 to 163 °C
same,IC50,human PAI-1,13.8 µM
"CC/C(=N\OCCCOc1ccc(C(=O)O)c(NC(=O)c2ccc(C(F)(F)F)cc2)c1)c1ccc(C(C)(C)C)cc1 [Compound 21, 4-[3-({[(1E)-1-(4-tert-butylphenyl)propylidene]amino}oxy)propoxy]-2-{[4-(trifluoromethyl)benzoyl]amino}benzoic Acid]",melting point,,149.4 to 151 °C
same,IC50,human PAI-1,16.3 µM
CC(=NOCCOc1ccc(C(=O)O)c(OC(=O)c2ccc(C(C)(C)C)cc2)c1)c1ccccc1 [Compound 6],IC50,human PAI-1,16.7 µM
"C/C(=N\OCCOc1ccc(C(=O)O)c(OC(=O)c2ccc(-c3ccccc3)cc2)c1)c1ccccc1 [Compound 15, 2-[([1,1′-Biphenyl]-4-ylcarbonyl)oxy]-4-[2-({[(E)-1-phenylethylidene]amino}oxy)ethoxy]benzoic Acid]",melting point,,157.5 to 159.1 °C
same,IC50,human PAI-1,18.9 µM
"O=C(Nc1cc(OCCCO/N=C/c2ccc(C(F)(F)F)cc2)ccc1C(=O)O)c1cc(C(F)(F)F)cc(C(F)(F)F)c1 [Compound 32, 2-{[3,5-Bis(trifluoromethyl)benzoyl]amino}-4-{3-[({(1E)-[4-(trifluoromethyl)phenyl]methylidene}amino)oxy]propoxy}benzoic Acid]",melting point,,218 to 219 °C (dec.)
same,IC50,human PAI-1,15.8 µM
"CC(C)(C)c1ccc(/C=N/OCCCOc2ccc(C(=O)O)c(NC(=O)c3cc(C(F)(F)F)cc(C(F)(F)F)c3)c2)cc1 [Compound 27, 2-{[3,5-Bis(trifluoromethyl)benzoyl]amino}-4-[3-({[(1E)-(4-tert-butylphenyl)methylidene]amino}oxy)propoxy]benzoic Acid]",melting point,,157.5 to 158.5 °C
same,IC50,human PAI-1,15.7 µM
"O=C(O)c1ccc(OCCCO/N=C/c2cc(C(F)(F)F)cc(C(F)(F)F)c2)cc1O [Compound 19, 4-{3-[({(E)-[3,5-Bis(trifluoromethyl)phenyl]methylidene}amino)oxy]propoxy}-2-hydroxybenzoic Acid]",melting point,,181.9 to 183.4 °C
same,IC50,human PAI-1,4.14 µM

# Reference: US7420083B2, “Substituted aryloximes” (Wyeth, priority 2003, dated 2008)
